We go through 39 compounds from patent publication US8846719B2, “Isoxazolo-pyridine derivatives” (Roche Palo Alto LLC, priority 2007, dated 2014).

For this assay, the target named is human GABA A receptor α5β3γ2 (Homo sapiens (Human), UniProt P18507+P31644). Nature of the assay: [3H]flumazenil competition binding assay, human GABA A α5β3γ2 receptors expressed in HEK293 cells. Particulars: human receptor; displacement of [3H]flumazenil (0.5 nM); means of two determinations; read-out: hKi GABAAa5. Put shortly: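 Competition for [3H]flumazenil binding on membranes of HEK293 cells transiently transfected with human α5β3γ2 receptors, in Krebs-tris buffer pH 7.5.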
For orientation: Displacement assays read how much labelled ligand stays bound in the presence of the test substance.
For `O=C(NC1CCOCC1)c1ccc(OCc2c(-c3ccc(F)cc3)noc2C(F)(F)F)nc1` [Example 144, 6-[3-(4-Fluoro-phenyl)-5-trifluoromethyl-isoxazol-4-ylmethoxy]-N-(tetrahydro-pyran-4-yl)-nicotinamide], the Ki was 12.5 nM.

Take `O=C(c1ccc(OCc2c(-c3ccc(F)cc3)noc2C(F)(F)F)nc1)N1CCS(=O)(=O)CC1` [Example 145, (1,1-Dioxo-1λ6-thiomorpholin-4-yl)-{6-[3-(4-fluoro-phenyl)-5-trifluoromethyl-isoxazol-4-ylmethoxy]-pyridin-3-yl}-methanone]: the Ki is 58.9 nM.

Consider `Cc1onc(-c2ccncc2)c1COc1ccc(C(=O)NCC(F)(F)F)cn1` [Example 146, 6-(5-Methyl-3-pyridin-4-yl-isoxazol-4-ylmethoxy)-N-(2,2,2-trifluoro-ethyl)-nicotinamide], for which the Ki came out at 5.9 nM.

In the case of `Cc1onc(-c2ccncc2)c1COc1ccc(C(=O)NCC2CC2)cn1` [Example 147, N-Cyclopropylmethyl-6-(5-methyl-3-pyridin-4-yl-isoxazol-4-ylmethoxy)-nicotinamide], the Ki came out at 4.1 nM.

With `Cc1onc(-c2ccncc2)c1COc1ccc(C(=O)NC2CC2)cn1` [Example 148, N-Cyclopropyl-6-(5-methyl-3-pyridin-4-yl-isoxazol-4-ylmethoxy)-nicotinamide], the Ki was 7.1 nM.

Consider `Cc1onc(-c2ccncc2)c1COc1ccc(C(=O)NC(C)C)cn1` [Example 149, N-Isopropyl-6-(5-methyl-3-pyridin-4-yl-isoxazol-4-ylmethoxy)-nicotinamide], for which the Ki was 4.5 nM.

With `Cc1onc(-c2ccncc2)c1COc1ccc(C(=O)NC2CCOCC2)cn1` [Example 150, 6-(5-Methyl-3-pyridin-4-yl-isoxazol-4-ylmethoxy)-N-(tetrahydro-pyran-4-yl)-nicotinamide], the Ki was determined as 5.6 nM.

In the case of `Cc1onc(-c2ccncc2)c1COc1ccc(C(=O)N2CCOCC2)cn1` [Example 151, [6-(5-Methyl-3-pyridin-4-yl-isoxazol-4-ylmethoxy)-pyridin-3-yl]-morpholin-4-yl-methanone], the Ki was determined as 84.5 nM.

With `Cc1onc(-c2ccncc2)c1COc1ccc(C(=O)N2CCSCC2)cn1` [Example 152, [6-(5-Methyl-3-pyridin-4-yl-isoxazol-4-ylmethoxy)-pyridin-3-yl]-thiomorpholin-4-yl-methanone], the Ki was 39.7 nM.

As for `Cc1onc(-c2ccncc2)c1COc1ccc(C(=O)N2CCS(=O)(=O)CC2)cn1` [Example 153, (1,1-Dioxo-1λ6-thiomorpholin-4-yl)-[6-(5-methyl-3-pyridin-4-yl-isoxazol-4-ylmethoxy)-pyridin-3-yl]-methanone], the Ki came to 65.7 nM.

Consider `COC(=O)c1ccc(OCc2c(-c3cccnc3)noc2C)nc1` [Example 154, 6-(5-Methyl-3-pyridin-3-yl-isoxazol-4-ylmethoxy)-nicotinic acid methyl ester], for which the Ki is 53.2 nM.

For the compound `Cc1onc(-c2cccnc2)c1COc1ccc(C(=O)NCC(F)(F)F)cn1` [Example 155, 6-(5-Methyl-3-pyridin-3-yl-isoxazol-4-ylmethoxy)-N-(2,2,2-trifluoro-ethyl)-nicotinamide], the Ki is 24 nM.

Consider `Cc1onc(-c2cccnc2)c1COc1ccc(C(=O)NCC2CC2)cn1` [Example 156, N-Cyclopropylmethyl-6-(5-methyl-3-pyridin-3-yl-isoxazol-4-ylmethoxy)-nicotinamide], for which the Ki is 29.8 nM.

For `Cc1onc(-c2cccnc2)c1COc1ccc(C(=O)NC2CC2)cn1` [Example 157, N-Cyclopropyl-6-(5-methyl-3-pyridin-3-yl-isoxazol-4-ylmethoxy)-nicotinamide], the Ki turned out to be 26.3 nM.

Take `Cc1onc(-c2cccnc2)c1COc1ccc(C(=O)NC(C)C)cn1` [Example 158, N-Isopropyl-6-(5-methyl-3-pyridin-3-yl-isoxazol-4-ylmethoxy)-nicotinamide]: the Ki is 31.7 nM.

Take `Cc1onc(-c2cccnc2)c1COc1ccc(C(=O)NC2CCOCC2)cn1` [Example 159, 6-(5-Methyl-3-pyridin-3-yl-isoxazol-4-ylmethoxy)-N-(tetrahydro-pyran-4-yl)-nicotinamide]: the Ki is 27.9 nM.

`Cc1onc(-c2ccccc2)c1CNc1ccccn1` [Example 160, (5-Methyl-3-phenyl-isoxazol-4-ylmethyl)-pyridin-2-yl-amine]: the Ki is 87.3 nM.

Consider `COC(=O)c1ccc(NCc2c(-c3ccccc3)noc2C)nc1` [Example 161, 6-[(5-Methyl-3-phenyl-isoxazol-4-ylmethyl)-amino]-nicotinic acid methyl ester], for which the Ki was found to be 27.4 nM.

For `Cc1onc(-c2ccccc2)c1CNc1ccc(C(=O)NCCO)cn1` [Example 162, N-(2-Hydroxy-ethyl)-6-[(5-methyl-3-phenyl-isoxazol-4-ylmethyl)-amino]-nicotinamide], the Ki was determined as 10.4 nM.

For the compound `Cc1onc(-c2ccccc2)c1CNc1ccc(C(=O)NCCN2CCCC2=O)cn1` [Example 163, 6-[(5-Methyl-3-phenyl-isoxazol-4-ylmethyl)-amino]-N-[2-(2-oxo-pyrrolidin-1-yl)-ethyl]-nicotinamide], the Ki came out at 37.3 nM.

For `Cc1onc(-c2ccccc2)c1CNc1ccc(C(=O)NC(C)C)cn1` [Example 164, N-Isopropyl-6-[(5-methyl-3-phenyl-isoxazol-4-ylmethyl)-amino]-nicotinamide], the Ki was found to be 5.9 nM.

As for `Cc1onc(-c2ccccc2)c1CNc1ccc(C(=O)NC2CC2)cn1` [Example 165, N-Cyclopropyl-6-[(5-methyl-3-phenyl-isoxazol-4-ylmethyl)-amino]-nicotinamide], the Ki worked out at 10.6 nM.

As to `Cc1onc(-c2ccccc2)c1CNc1ccc(C(=O)NC2CCOCC2)cn1` [Example 166, 6-[(5-Methyl-3-phenyl-isoxazol-4-ylmethyl)-amino]-N-(tetrahydro-pyran-4-yl)-nicotinamide], the Ki is 8.8 nM.

`COC(=O)c1ccc(NCc2c(-c3cccc(F)c3)noc2C)nc1` [Example 167, 6-{[3-(3-Fluoro-phenyl)-5-methyl-isoxazol-4-ylmethyl]-amino}-nicotinic acid methyl ester]: the Ki came out at 69.3 nM.

Regarding `Cc1onc(-c2cccc(F)c2)c1CNc1ccc(C(=O)NCC(F)(F)F)cn1` [Example 168, 6-{[3-(3-Fluoro-phenyl)-5-methyl-isoxazol-4-ylmethyl]-amino}-N-(2,2,2-trifluoro-ethyl)-nicotinamide], the Ki was 17.8 nM.

With `Cc1onc(-c2cccc(F)c2)c1CNc1ccc(C(=O)NC(C)C)cn1` [Example 169, 6-{[3-(3-Fluoro-phenyl)-5-methyl-isoxazol-4-ylmethyl]-amino}-N-isopropyl-nicotinamide], the Ki worked out at 15.4 nM.

For the compound `Cc1onc(-c2cccc(F)c2)c1CNc1ccc(C(=O)NC2CC2)cn1` [Example 170, N-Cyclopropyl-6-{[3-(3-fluoro-phenyl)-5-methyl-isoxazol-4-ylmethyl]-amino}-nicotinamide], the Ki turned out to be 19.4 nM.

As for `Cc1onc(-c2cccc(F)c2)c1CNc1ccc(C(=O)NC2CCOCC2)cn1` [Example 171, 6-{[3-(3-Fluoro-phenyl)-5-methyl-isoxazol-4-ylmethyl]-amino}-N-(tetrahydro-pyran-4-yl)-nicotinamide], the Ki stood at 14.9 nM.

For `COC(=O)c1ccc(NCc2c(-c3ccc(F)cc3)noc2C)nc1` [Example 172, 6-{[3-(4-Fluoro-phenyl)-5-methyl-isoxazol-4-ylmethyl]-amino}-nicotinic acid methyl ester], the Ki was 25.9 nM.

Turning to `Cc1onc(-c2ccc(F)cc2)c1CNc1ccc(C(=O)NCC(F)(F)F)cn1` [Example 173, 6-{[3-(4-Fluoro-phenyl)-5-methyl-isoxazol-4-ylmethyl]-amino}-N-(2,2,2-trifluoro-ethyl)-nicotinamide], the Ki came out at 5.9 nM.

Take `Cc1onc(-c2ccc(F)cc2)c1CNc1ccc(C(=O)NCC2CC2)cn1` [Example 174, N-Cyclopropylmethyl-6-{[3-(4-fluoro-phenyl)-5-methyl-isoxazol-4-ylmethyl]-amino}-nicotinamide]: the Ki came to 7.6 nM.

On to `Cc1onc(-c2ccc(F)cc2)c1CNc1ccc(C(=O)NC(C)C)cn1` [Example 175, 6-{[3-(4-Fluoro-phenyl)-5-methyl-isoxazol-4-ylmethyl]-amino}-N-isopropyl-nicotinamide], for which the Ki was found to be 3.7 nM.

Consider `Cc1onc(-c2ccc(F)cc2)c1CNc1ccc(C(=O)NC2CC2)cn1` [Example 176, N-Cyclopropyl-6-{[3-(4-fluoro-phenyl)-5-methyl-isoxazol-4-ylmethyl]-amino}-nicotinamide], for which the Ki amounted to 7.4 nM.

With `Cc1onc(-c2ccc(F)cc2)c1CNc1ccc(C(=O)NC2CCOCC2)cn1` [Example 177, 6-{[3-(4-Fluoro-phenyl)-5-methyl-isoxazol-4-ylmethyl]-amino}-N-(tetrahydro-pyran-4-yl)-nicotinamide], the Ki was 6.5 nM.

On to `Cc1onc(-c2ccc(F)cc2)c1CNc1ccc(C(=O)N2CCS(=O)(=O)CC2)cn1` [Example 178, (1,1-Dioxo-1,6-thiomorpholin-4-yl)-(6-{[3-(4-fluoro-phenyl)-5-methyl-isoxazol-4-ylmethyl]-amino}-pyridin-3-yl)-methanone], for which the Ki is 29.2 nM.

Consider `CC(=O)Nc1ccc(OCc2c(-c3ccccc3)noc2C)nc1` [Example 179, N-[6-(5-Methyl-3-phenyl-isoxazol-4-ylmethoxy)-pyridin-3-yl]-acetamide], for which the Ki worked out at 9.4 nM.

For the compound `COC(=O)C(=O)Nc1ccc(OCc2c(-c3ccccc3)noc2C)nc1` [Example 180, N-[6-(5-Methyl-3-phenyl-isoxazol-4-ylmethoxy)-pyridin-3-yl]-oxalamic acid methyl ester], the Ki was determined as 7.2 nM.

In the case of `Cc1onc(-c2ccccc2)c1COc1ccc(NC(=O)C(C)C)cn1` [Example 181, N-[6-(5-Methyl-3-phenyl-isoxazol-4-ylmethoxy)-pyridin-3-yl]-isobutyramide], the Ki was found to be 19.2 nM.

For `Cc1onc(-c2ccccc2)c1COc1ccc(NC(=O)C2CC2)cn1` [Example 182, Cyclopropanecarboxylic acid [6-(5-methyl-3-phenyl-isoxazol-4-ylmethoxy)-pyridin-3-yl]-amide], the Ki was 10.1 nM.
